ChEMBL document CHEMBL6087472, “Development and Discovery of a Selective Degrader of Casein Kinases 1 δ/ε” (J Med Chem, 2025)
The source made the active and inactive calls. The rule behind the calls is not given here.

Assays:
[1] = target: T1, von Hippel-Lindau disease tumor suppressor/Casein kinase I isoform delta (Homo sapiens, UniProt P48730+P40337); test: PROTAC activity at VHL/CK1 delta in human MDA-MB-231 cells assessed as induction of degradation of CK1 delta at 1 uM measured after 6 hrs; assay type: cell-based
T1 sequence (P40337 whole entry, looked up, canonical isoform): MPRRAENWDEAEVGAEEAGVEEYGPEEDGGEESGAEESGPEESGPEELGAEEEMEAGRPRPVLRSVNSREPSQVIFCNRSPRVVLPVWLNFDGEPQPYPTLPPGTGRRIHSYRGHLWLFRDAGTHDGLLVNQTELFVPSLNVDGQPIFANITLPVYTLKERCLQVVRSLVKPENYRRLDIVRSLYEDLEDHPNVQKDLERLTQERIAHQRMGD
T1 sequence (P48730 whole entry, looked up, canonical isoform): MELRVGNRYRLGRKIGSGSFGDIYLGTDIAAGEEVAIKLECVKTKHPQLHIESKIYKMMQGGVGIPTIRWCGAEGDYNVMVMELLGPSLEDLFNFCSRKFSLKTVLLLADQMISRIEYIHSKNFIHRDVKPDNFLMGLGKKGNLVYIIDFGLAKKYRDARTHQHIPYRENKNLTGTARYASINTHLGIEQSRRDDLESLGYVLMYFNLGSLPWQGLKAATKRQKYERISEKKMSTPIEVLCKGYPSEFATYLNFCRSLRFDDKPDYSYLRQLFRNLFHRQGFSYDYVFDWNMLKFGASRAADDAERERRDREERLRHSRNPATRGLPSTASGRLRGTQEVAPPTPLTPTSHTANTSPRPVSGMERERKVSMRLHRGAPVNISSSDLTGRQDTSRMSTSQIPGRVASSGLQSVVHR

[2] = target: T2, von Hippel-Lindau disease tumor suppressor/Casein kinase I isoform epsilon (Homo sapiens) (UniProt P49674+P40337); test: PROTAC activity at VHL/CK1 epsilon in human MDA-MB-231 cells assessed as induction of degradation of CK1 epsilon by measuring maximum efficacy at 1 uM measured after 6 hrs relative to control; assay type: cell-based
T2 sequence (P40337 whole entry, looked up, the tested form may be a part, canonical isoform): as the sequence (P40337 whole entry, looked up, canonical isoform) above
T2 sequence (P49674 whole entry, looked up, the tested form may be a part, canonical isoform): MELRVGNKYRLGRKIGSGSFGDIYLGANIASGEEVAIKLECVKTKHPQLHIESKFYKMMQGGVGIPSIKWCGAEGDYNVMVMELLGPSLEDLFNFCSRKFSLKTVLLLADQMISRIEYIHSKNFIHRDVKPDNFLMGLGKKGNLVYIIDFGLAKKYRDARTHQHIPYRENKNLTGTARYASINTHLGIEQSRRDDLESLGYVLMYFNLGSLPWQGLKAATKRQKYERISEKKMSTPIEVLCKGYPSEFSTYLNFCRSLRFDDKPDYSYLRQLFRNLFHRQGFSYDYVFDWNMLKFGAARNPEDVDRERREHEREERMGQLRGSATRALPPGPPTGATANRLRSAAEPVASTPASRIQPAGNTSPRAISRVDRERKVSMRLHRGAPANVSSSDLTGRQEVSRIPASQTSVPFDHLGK

[3] = target: T1, von Hippel-Lindau disease tumor suppressor/Casein kinase I isoform delta; test: PROTAC activity at VHL/HiBit fused CK1 delta in human MV4-11 cells assessed as fold change at 0.63 uM measured after 6 hrs in presence of 10 uM of MU1742 by Nano-Glo HiBit assay; assay type: cell-based
[4] = test system: MV4-11; test: Cytotoxicity in human MV4-11 cells at >10 uM measured after 72 hrs by alamar blue assay; assay type: functional, cell-based
[5] = target: T2, von Hippel-Lindau disease tumor suppressor/Casein kinase I isoform epsilon (Homo sapiens); test: PROTAC activity at VHL/CK1 epsilon in HEK293 cells assessed as induction of degradation of CK1 epsilon by measuring maximum efficacy at 5 to 10 uM measured after 6 hrs by Western blot analysis relative to control; assay type: cell-based; conditions: dose 5-10 µM
[6] = target: T2, von Hippel-Lindau disease tumor suppressor/Casein kinase I isoform epsilon (Homo sapiens); test: PROTAC activity at VHL/CK1 epsilon in HEK293 cells assessed as induction of degradation of CK1 epsilon at upto 20 uM pretreated with LGK974 followed by compound addition and measured after 6 hrs by Western blot analysis; assay type: cell-based
[7] = target: T3, von Hippel-Lindau disease tumor suppressor/Casein kinase I isoform alpha (Homo sapiens) (UniProt P48729+P40337); test: PROTAC activity at VHL/CK1 alpha (unknown origin) endogenously expressed in HEK293 cells assessed as degradation of CK1-alpha at 10 to 30 uM incubated for 6 hrs by Western blot analysis; assay type: cell-based; conditions: dose 10-30 µM
T3 sequence (P40337 whole entry, looked up, canonical isoform): as the sequence (P40337 whole entry, looked up, canonical isoform) above
T3 sequence (P48729 whole entry, looked up, canonical isoform): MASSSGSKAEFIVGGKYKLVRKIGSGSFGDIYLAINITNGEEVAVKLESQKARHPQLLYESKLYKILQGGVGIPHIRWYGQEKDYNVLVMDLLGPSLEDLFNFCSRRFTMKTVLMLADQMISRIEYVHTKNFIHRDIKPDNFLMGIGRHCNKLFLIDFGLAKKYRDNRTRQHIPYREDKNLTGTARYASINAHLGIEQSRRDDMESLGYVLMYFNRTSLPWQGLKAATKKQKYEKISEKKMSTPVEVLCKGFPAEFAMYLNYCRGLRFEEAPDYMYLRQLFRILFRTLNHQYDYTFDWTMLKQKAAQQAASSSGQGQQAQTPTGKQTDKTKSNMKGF

[8] = target: T3, von Hippel-Lindau disease tumor suppressor/Casein kinase I isoform alpha (Homo sapiens); test: PROTAC activity at VHL/CK1 alpha in human HEK293 cells at 0.625 to 10 uM in presence of MU1742 by Western blot analysis; assay type: cell-based; conditions: dose 0.625-10 µM
[9] = target: T3, von Hippel-Lindau disease tumor suppressor/Casein kinase I isoform alpha (Homo sapiens); test: PROTAC activity at VHL/CK1 alpha in HEK293 cells assessed as induction of degradation of CK1 alpha at high concentration measured after 6 hrs by Western blot analysis relative to control; assay type: cell-based
[10] = target: T1, von Hippel-Lindau disease tumor suppressor/Casein kinase I isoform delta; test: PROTAC activity at VHL/CK1 delta in human U87 cells assessed as induction of degradation of CK1 delta by measuring maximum efficacy at 1 uM measured after 6 hrs relative to control; assay type: cell-based
[11] = target: T2, von Hippel-Lindau disease tumor suppressor/Casein kinase I isoform epsilon (Homo sapiens); test: PROTAC activity at VHL/CK1 epsilon in HEK293 cells assessed as induction of degradation of CK1 epsilon at 0.3 to 1.0 uM measured after 6 hrs by Western blot analysis relative to control; assay type: cell-based; conditions: dose 0.3-1 µM
[12] = target: T1, von Hippel-Lindau disease tumor suppressor/Casein kinase I isoform delta; test: PROTAC activity at VHL/CK1 delta in human MV4-11 cells assessed as degradation of CK1-delta at 5 to 10 uM incubated for 6 hrs by Western blot analysis; assay type: cell-based; conditions: dose 5-10 µM
[13] = target: T2, von Hippel-Lindau disease tumor suppressor/Casein kinase I isoform epsilon (Homo sapiens); test: PROTAC activity at VHL/CK1 epsilon in human MV4-11 cells assessed as degradation of CK1 epsilon at 5 to 10 uM incubated for 6 hrs by Western blot analysis; assay type: cell-based; conditions: dose 5-10 µM
[14] = target: T3, von Hippel-Lindau disease tumor suppressor/Casein kinase I isoform alpha (Homo sapiens); test: PROTAC activity at VHL/CK1 alpha in human MV4-11 cells assessed as degradation of CK1-alpha at 10 to 30 uM incubated for 6 hrs by Western blot analysis; assay type: cell-based; conditions: dose 10-30 µM
[15] = target: T3, von Hippel-Lindau disease tumor suppressor/Casein kinase I isoform alpha (Homo sapiens); test: PROTAC activity at VHL/CK1 alpha in HEK293 cells assessed as induction of degradation of CK1 alpha by measuring maximum efficacy at 5 to 10 uM measured after 6 hrs by Western blot analysis relative to control; assay type: cell-based; conditions: dose 5-10 µM
[16] = target: T1, von Hippel-Lindau disease tumor suppressor/Casein kinase I isoform delta; test: PROTAC activity at VHL/HiBit fused CK1 delta in human MV4-11 cells assessed as fold change at 2.5 uM measured after 6 hrs by Nano-Glo HiBit assay; assay type: cell-based
[17] = target: T1, von Hippel-Lindau disease tumor suppressor/Casein kinase I isoform delta; test: PROTAC activity at VHL/Hibit-fused CK1 delta in human MV4-11 cells assessed as degradation of CK1 delta at 5 to 10 uM incubated for 6 hrs by Western blot analysis; assay type: cell-based; conditions: dose 5-10 µM
[18] = target: T1, von Hippel-Lindau disease tumor suppressor/Casein kinase I isoform delta; test: PROTAC activity at VHL/HiBit fused CK1 delta in human MV4-11 cells assessed as fold change at 0.63 uM measured after 6 hrs by Nano-Glo HiBit assay; assay type: cell-based
[19] = target: T1, von Hippel-Lindau disease tumor suppressor/Casein kinase I isoform delta; test: PROTAC activity at VHL/CK1 delta in HEK293 cells assessed as induction of degradation of CK1 delta by measuring maximum efficacy at 5 to 10 uM measured after 6 hrs by Western blot analysis relative to control; assay type: cell-based; conditions: dose 5-10 µM
[20] = test system: MV4-11; test: Cytotoxicity in human MV4-11 cells at 10 uM measured after 72 hrs by alamar blue assay; assay type: functional, cell-based
[21] = target: T1, von Hippel-Lindau disease tumor suppressor/Casein kinase I isoform delta; test: PROTAC activity at VHL/HiBit fused CK1 delta in human MV4-11 cells assessed as fold change at 2.5 uM measured after 6 hrs in presence of MLN4924 by Nano-Glo HiBit assay; assay type: cell-based
[22] = target: Casein kinase I isoform delta (Homo sapiens) (UniProt P48730); test: Binding affinity to […] in human HEK293 cells assessed as target engagement at >3 uM; assay type: cell-based
Sequence of Casein kinase I isoform delta (Homo sapiens) (P48730 whole entry, looked up, canonical isoform): as the sequence (P48730 whole entry, looked up, canonical isoform) above

[23] = target: T2, von Hippel-Lindau disease tumor suppressor/Casein kinase I isoform epsilon (Homo sapiens); test: PROTAC activity at VHL/CK1 epsilon in HEK293 cells assessed as induction of degradation of CK1 epsilon at 3 uM measured after 6 hrs by Western blot analysis relative to control; assay type: cell-based
[24] = target: T1, von Hippel-Lindau disease tumor suppressor/Casein kinase I isoform delta; test: PROTAC activity at VHL/Hibit-fused CK1 delta in human MV4-11 cells assessed as degradation of CK1-delta at 2.5 uM measured upto 12 hrs in presence of cycloheximide by Nano-Glo HiBiT assay relative to control; assay type: cell-based
[25] = target: T1, von Hippel-Lindau disease tumor suppressor/Casein kinase I isoform delta; test: PROTAC activity at VHL/Hibit-fused CK1 delta in human MV4-11 cells assessed as degradation of CK1-delta at 10 nM incubated for 6 hrs by Nano-Glo HiBiT assay; assay type: cell-based
[26] = target: T1, von Hippel-Lindau disease tumor suppressor/Casein kinase I isoform delta; test: PROTAC activity at VHL/full length N-terminal Nano-luc fused CK1 delta (unknown origin) transfected in HEK293T cells incubated for 2 hrs followed by substrate addition by NanoBRET target engagement assay; assay type: cell-based
[27] = target: T1, von Hippel-Lindau disease tumor suppressor/Casein kinase I isoform delta; test: PROTAC activity at VHL/CK1 delta in HEK293 cells assessed as induction of degradation of CK1 delta at 0.3 to 1.0 uM measured after 6 hrs by Western blot analysis relative to control; assay type: cell-based; conditions: dose 0.3-1 µM
[28] = target: T1, von Hippel-Lindau disease tumor suppressor/Casein kinase I isoform delta; test: PROTAC activity at VHL/CK1 delta in human HEK293 cells at 0.625 to 10 uM in presence of MU1742 by Western blot analysis; assay type: cell-based; conditions: dose 0.625-10 µM
[29] = test system: HEK293; test: Effect on VANGL2 phosphorylation in human HEK293 cells at 1 uM measured after 6 hrs by Western blot analysis; assay type: functional, cell-based
[30] = target: T1, von Hippel-Lindau disease tumor suppressor/Casein kinase I isoform delta; test: PROTAC activity at VHL/Hibit-fused CK1 delta in human MV4-11 cells assessed as half life at 2.5 uM measured upto 12 hrs in presence of cycloheximide by Nano-Glo HiBiT assay (reference value: 3 hrs); assay type: cell-based
[31] = target: T1, von Hippel-Lindau disease tumor suppressor/Casein kinase I isoform delta; test: PROTAC activity at VHL/CK1 delta in HEK293 cells assessed as induction of degradation of CK1 delta at 3 uM measured after 6 hrs by Western blot analysis relative to control; assay type: cell-based

Activity [1]: Active
Emax [2]: 75%
fold change (FC) [3]: 1.2
Emax [5]: > 50%
Activity [6]: Active
Activity [7]: Active
Activity [8]: inactive
Emax [10]: > 50%
Activity [11]: 100%
Activity [12]: Active
Activity [13]: Active
Emax [15]: > 50%
fold change (FC) [16]: 0.33
Activity [17]: Active
fold change (FC) [18]: 0.49
Emax [19]: > 50%
fold change (FC) [21]: 0.85
Activity [22]: Active
Activity [23]: 100%
Activity [24]: 90%
Activity [25]: Active
Emax [26]: 3.2%
Activity [27]: 100%
Activity [28]: inactive
T1/2 [30]: 40 min
Activity [31]: 100%
SMILES: Cc1ncsc1-c1ccc(CNC(=O)[C@H]2C[C@H](O)CN2C(=O)[C@H](NC(=O)CCCCCCC(=O)N2CCC(F)(Cn3cnc(-c4ccc(F)cn4)c3-c3ccnc4[nH]ccc34)CC2)C(C)(C)C)cc1
Activity [4]: Active
Activity [9]: Not active; Compound Showed Weak Degradation
Activity [14]: Not active; Compound Showed Weak Degradation
Activity [20]: Active; Compound Showed Milder Cytotoxic Effect
Activity [29]: Active
